Test results published in ChEMBL document CHEMBL1122361, “Synthesis and antineoplastic activity of 3'-azido and 3'-amino analogues of pyrimidine deoxyribonucleoside” (1983).
Calls of active or inactive are those of the source. The rule behind the calls is not given here.

Assays:
L1210 [1] = assay: Ability to effect the replication of L1210 cells in vitro; format: functional; conditions: Mus musculus, read-out: ID50 (the source's name)
[2] = Ability to effect the replication of S-180 cells in vitro; format: functional; conditions: Mus musculus, read-out: ID50 (the source's name)
Mus musculus = assay: Ratio of treated to that of control was determined in mice tested in vivo(on day 31); format: functional
L1210 [3] = assay: Ability to effect the replication of L1210 cells in vitro; IN-Inactive; format: functional, cell-based; conditions: Mus musculus

Row | IC50 (L1210 [1]) | IC50 [2] | Compound | T/C (Mus musculus) | ID50 (L1210 [3])
1 | 0.7 µM | 4 µM | Nc1ccn([C@H]2C[C@H](N)[C@@H](CO)O2)c(=O)n1 | 283% | 
2 |  |  | [N-]=[N+]=N[C@H]1C[C@H](n2ccc(=O)[nH]c2=O)O[C@@H]1CO |  | inactive
3 | 18 µM | 50 µM | N[C@H]1C[C@H](n2ccc(=O)[nH]c2=O)O[C@@H]1CO |  | 
4 |  |  | [N-]=[N+]=N[C@H]1C[C@H](n2ccc(N)nc2=O)O[C@@H]1CO |  | inactive
